Assay results reported in patent US4835100A (priority 1986, dated 1989).
“And” between values parts separate entries of the source, which are not always exact repeats. Equal entries are not always repeated.

Assays:
[1] = tested on: monoclonal antibody (2F5); assay type: binding, mouse
[2] = tested on: monoclonal antibody (2F5); assay type: binding, mouse; remark: listed apart in the source
[3] = tested on: monoclonal antibody (1C6); assay type: binding, mouse
monoclonal antibody 4E1 = details: cited from earlier work
[4] = tested on: monoclonal antibody of Groopman et al; details: cited from earlier work
[5] = tested on: Rabbit polyclonal anti-aflatoxin B1 antibody; details: cited from earlier work
[6] = tested on: serum antibody of mouse 1; assay type: binding
[7] = tested on: serum antibody of mouse 2; assay type: binding

SMILES | % Cross-reactivity 1 (2F5) [1] | concentration for 50% inhibition of antibody binding in the ELISA [1] | % Cross-reactivity 2 (2F5) [2] | % Cross-reactivity 3 (1C6) [3] | % Cross-reactivity 4 (monoclonal antibody 4E1) | % Cross-reactivity 5 [4] | % Cross-reactivity Rabbit [5] | Percent Inhibition of serum antibody binding to solid phase [6] | Percent Inhibition of serum antibody binding to solid phase [7]
COc1cc2c(c3oc(=O)c4c(c13)CCC4=O)[C@]1(O)C=CO[C@@H]1O2 [Aflatoxin M1, aflatoxin M1] | 4.5% | 63.1 ng/mL | 3.7% | 3.9% | 7.3% | 100.0% | 0% |  | 
COc1cc2c(c3oc(=O)c4c(c13)CCC4=O)[C@@H]1CCO[C@@H]1O2 [Aflatoxin B2, aflatoxin B2] | 4.0% | 70.8 ng/mL | 0.2% | 6.7% | 12.6% | 100.0% | 131.6% |  | 
COc1cc2c(c3oc(=O)c4c(c13)CCC4=O)[C@@H]1C=CO[C@@H]1O2 [Aflatoxin B1, aflatoxin B1] | 100.0% | 2.8 ng/mL | 100.0% | 100.00% | 100.0% | 100.0% | 100.0% | 0 | 44.6 and 44.3 and 28.7 and 33.6 and 23.5
COc1cc2c(c3oc(=O)c4c(c13)CCOC4=O)[C@@H]1C=CO[C@@H]1O2 [Aflatoxin G1, aflatoxin G1] | 175.0% | 1.6 ng/mL | 26.6% | 193.0% | 14.3% | 5.0% | 31.2% |  | 
COc1cc2c(c3oc(=O)c4c(c13)CCOC4=O)[C@@H]1CCO[C@@H]1O2 [Aflatoxin G2, aflatoxin G2] | 5.0% | 56.2 ng/mL | < 0.01% | 2.3% | 1.2% | 3.6% | 1.3% |  | 
